Measurements: US8058242B2, “Chimeric proteins with natriuretic activity” (The University of Queensland, priority 2004, dated 2011)
Positions of bridges follow the written chain, without caps; N, C: chain ends. Residues, ends and D or L forms follow the SMILES beside them.

Legend:
[1] = Stability assay in human plasma (Example 6); type: in vitro ADME; conditions: 24 h at 37° C., read-out: peptide remaining in plasma
Method: Plasma preparation: Blood samples (from healthy human volunteers) were drawn into a sealed tube containing ethylene diamine tetra-acetic acid (EDTA). After sampling, the plasma was separated by centrifugation at 14,000 rpm for 30 min. Plasma was taken out and stored in separated Eppendorf tubes at −20° C.
(§1) Stability assay in human and rat plasma: Human or rat plasma (sample size 200 μL) was incubated at 37° C. for 5 min. 50 μL peptide stock solution (5 mg/mL) was added to the plasma. The vortexed reaction mixture was incubated at 37° C. Sample aliquots of 30 μL were taken from the reaction mixture at sequential intervals of 0 h, 1 h, 2 h, 4 h and 24 h and the sample reaction quenched immediately with 30 μL extraction buffer containing 50% Acetonitrile, 50% 0.1 M NaCl and 1% TFA. The quenched aliquots were cooled in ice for 5 min prior to centrifugation at 14,000 rpm for 15 min. 20 μl of the supernatant from each of the centrifuged aliquots was injected into RP-HPLC for analysis.

normal rats = assay: Hemodynamic parameters in normal anesthetized rats (Example 10)
rat GC-A = biological target: T1, rat GC-A (Rattus norvegicus, UniProt P18910); assay: Cell cyclic GMP elevations in HEK-293 cells stably expressing rat GC-A (Example 4); type: cell-based; conditions: 0.1 μM; 293 cells over-expressing GC-A
T1 construct: expressed in transfected cells
T1 sequence (P18910 29-1057): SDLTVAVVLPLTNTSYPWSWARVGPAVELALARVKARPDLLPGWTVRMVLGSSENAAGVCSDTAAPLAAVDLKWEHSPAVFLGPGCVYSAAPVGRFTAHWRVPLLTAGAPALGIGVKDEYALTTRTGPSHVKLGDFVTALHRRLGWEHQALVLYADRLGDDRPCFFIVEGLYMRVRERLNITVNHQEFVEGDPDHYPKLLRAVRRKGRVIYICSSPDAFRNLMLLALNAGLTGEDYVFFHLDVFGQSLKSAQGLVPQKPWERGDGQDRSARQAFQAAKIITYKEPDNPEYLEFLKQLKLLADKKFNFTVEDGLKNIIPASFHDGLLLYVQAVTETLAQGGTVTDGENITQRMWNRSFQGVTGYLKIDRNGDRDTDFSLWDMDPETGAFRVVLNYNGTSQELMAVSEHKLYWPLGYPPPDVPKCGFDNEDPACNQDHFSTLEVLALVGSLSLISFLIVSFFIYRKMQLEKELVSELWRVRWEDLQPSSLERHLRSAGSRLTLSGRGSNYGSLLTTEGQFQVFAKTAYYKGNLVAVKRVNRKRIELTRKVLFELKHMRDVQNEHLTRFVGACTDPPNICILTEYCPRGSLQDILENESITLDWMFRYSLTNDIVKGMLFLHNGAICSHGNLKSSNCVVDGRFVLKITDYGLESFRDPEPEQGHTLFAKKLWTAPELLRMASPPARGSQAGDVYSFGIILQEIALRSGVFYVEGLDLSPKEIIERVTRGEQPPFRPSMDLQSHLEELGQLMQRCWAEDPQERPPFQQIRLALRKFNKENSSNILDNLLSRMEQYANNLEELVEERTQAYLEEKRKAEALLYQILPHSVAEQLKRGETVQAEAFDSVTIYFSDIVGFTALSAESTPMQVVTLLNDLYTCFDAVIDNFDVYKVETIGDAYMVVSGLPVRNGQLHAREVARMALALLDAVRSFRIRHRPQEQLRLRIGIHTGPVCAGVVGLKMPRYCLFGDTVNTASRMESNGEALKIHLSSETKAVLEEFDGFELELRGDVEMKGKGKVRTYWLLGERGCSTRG
Description: The human embryonic kidney 293 (HEK-293) cell line was used for the stable expression of rat GC-A (GC-A/293). Cells expressing rat GC-A (GC-A/293) in the HEK-293 cell line were as previously described (Potter L. R., and Garbers D. L., (1992), J Biol Chem. 26, 14531-4) and determination of cGMP elevations was undertaken as previously described (Chrisman et al. T. D., Schulz, S., Potter, L. R. and Garbers, D. L., (1993,) J. Biol. Chem. (1993) 268 (5), 3698-3703). Responses were expressed as a percentage of the effect produced by ANP.

[2] = Stability assay in rat plasma (Example 6); type: in vitro ADME; conditions: 24 h at 37° C., read-out: peptide remaining in plasma
Method: as §1

[3] = test system: rats with chronic heart failure; assay: Rat model of chronic heart failure, left coronary artery occlusion, anesthetized (Example 10); conditions: HF rats

CC[C@H](C)[C@H](NC(=O)[C@H](CCCCN)NC(=O)[C@H](CO)NC(=O)[C@H](CC(=O)O)NC(=O)[C@@H](N)CO)C(=O)NCC(=O)N[C@@H](CC(N)=O)C(=O)NCC(=O)N[C@H]1CSSC[C@@H](C(=O)N[C@@H](CC(N)=O)C(=O)N[C@@H](CCCNC(=N)N)C(=O)N[C@H](C(=O)N[C@@H](CCSC)C(=O)N[C@@H](CCC(N)=O)C(=O)N[C@@H](CC(N)=O)C(=O)N2CCC[C@H]2C(=O)N2CCC[C@H]2C(=O)N[C@@H](CCCCN)C(=O)N[C@@H](CCCCN)C(=O)N[C@@H](Cc2ccccc2)C(=O)N[C@@H](CO)C(=O)NCC(=O)N[C@@H](CCC(=O)O)C(=O)O)[C@@H](C)CC)NC(=O)CNC(=O)[C@H](CC(C)C)NC(=O)CNC(=O)[C@H](CO)NC(=O)[C@H](C(C)C)NC(=O)[C@H](CO)NC(=O)CNC(=O)[C@H]([C@@H](C)CC)NC(=O)[C@H](CCCNC(=N)N)NC(=O)[C@H](CC(=O)O)NC(=O)[C@H](CC(C)C)NC(=O)[C@@H]2CCCN2C(=O)[C@H](Cc2ccccc2)NC(=O)CNC(=O)[C@H](Cc2ccccc2)NC1=O [TNPc] (H-SDSKIGNGCFGFPLDRIGSVSGLGCNRIMQNPPKKFSGE-OH; disulfide 9-25)
remaining at 24 h, 1 mg/mL [1]: 72%
Blood Flow, mean change from control (normal rats; 50 pmol/kg/min, 30 min): -5.2 mL/min
Conductance, mean change from control (normal rats; 50 pmol/kg/min, 30 min): −1.1 ml/min/mmHg
Diastolic LVP, mean change from control (normal rats; 50 pmol/kg/min, 30 min): −1.4 mmHg
HCT, mean change from control (normal rats; 50 pmol/kg/min, 30 min): −1.7%
HR, mean change from control (normal rats; 50 pmol/kg/min, 30 min): −13.5 BPM
Mean BP, mean change from control (normal rats; 50 pmol/kg/min, 30 min): −21.0 mmHg
Urine Flow, mean change from control (normal rats; 50 pmol/kg/min, 30 min): 0.4 mL/h
Blood Flow, mean change from control (normal rats; 100 pmol/kg/min, 30 min): -7.3 mL/min
Conductance, mean change from control (normal rats; 100 pmol/kg/min, 30 min): −2.1 ml/min/mmHg
Diastolic LVP, mean change from control (normal rats; 100 pmol/kg/min, 30 min): −0.9 mmHg
HCT, mean change from control (normal rats; 100 pmol/kg/min, 30 min): −3.5%
HR, mean change from control (normal rats; 100 pmol/kg/min, 30 min): −23.6 BPM
Mean BP, mean change from control (normal rats; 100 pmol/kg/min, 30 min): −25.9 mmHg
Urine Flow, mean change from control (normal rats; 100 pmol/kg/min, 30 min): 0.9 mL/h
Blood Flow, mean change from control (normal rats; Recovery): -3.0 mL/min
Conductance, mean change from control (normal rats; Recovery): −1.3 ml/min/mmHg
Diastolic LVP, mean change from control (normal rats; Recovery): −0.6 mmHg
HCT, mean change from control (normal rats; Recovery): 3.1%
HR, mean change from control (normal rats; Recovery): −17.9 BPM
Mean BP, mean change from control (normal rats; Recovery): −4.1 mmHg
Urine Flow, mean change from control (normal rats; Recovery): 0.6 mL/h
Blood Flow, Average drug response SED (normal rats; average of the two doses): -6.2 mL/min
Conductance, Average drug response SED (normal rats; average of the two doses): −1.6 ml/min/mmHg
Diastolic LVP, Average drug response SED (normal rats; average of the two doses): −1.1 mmHg
HCT, Average drug response SED (normal rats; average of the two doses): −2.6%
HR, Average drug response SED (normal rats; average of the two doses): −18.6 BPM
Mean BP, Average drug response SED (normal rats; average of the two doses): −23.5 mmHg
Urine Flow, Average drug response SED (normal rats; average of the two doses): 0.7 mL/h
cGMP elevations, percentage of the effect produced by ANP (rat GC-A): equipotent to ANP and DNP
remaining at 24 h, 1 mg/mL [2]: 76%
Blood Flow, mean change from control ([3]; 50 pmol/kg/min, 30 min): -1.6 mL/min
Conductance, mean change from control ([3]; 50 pmol/kg/min, 30 min): −0.2 ml/min/mmHg
Diastolic LVP, mean change from control ([3]; 50 pmol/kg/min, 30 min): −0.9 mmHg
HCT, mean change from control ([3]; 50 pmol/kg/min, 30 min): 1.5%
HR, mean change from control ([3]; 50 pmol/kg/min, 30 min): −5.2 bpm
Mean BP, mean change from control ([3]; 50 pmol/kg/min, 30 min): −11.8 mmHg
Urine Flow, mean change from control ([3]; 50 pmol/kg/min, 30 min): 1.0 mL/h
Blood Flow, mean change from control ([3]; 100 pmol/kg/min, 30 min): -2.9 mL/min
Conductance, mean change from control ([3]; 100 pmol/kg/min, 30 min): −0.4 ml/min/mmHg
Diastolic LVP, mean change from control ([3]; 100 pmol/kg/min, 30 min): −1.6 mmHg
HCT, mean change from control ([3]; 100 pmol/kg/min, 30 min): 2.4%
HR, mean change from control ([3]; 100 pmol/kg/min, 30 min): −14.8 bpm
Mean BP, mean change from control ([3]; 100 pmol/kg/min, 30 min): −20.1 mmHg
Urine Flow, mean change from control ([3]; 100 pmol/kg/min, 30 min): 1.7 mL/h
Blood Flow, mean change from control ([3]; Recovery): -0.5 mL/min
Conductance, mean change from control ([3]; Recovery): 0.6 ml/min/mmHg
Diastolic LVP, mean change from control ([3]; Recovery): −1.4 mmHg
HCT, mean change from control ([3]; Recovery): 0.8%
HR, mean change from control ([3]; Recovery): −16.5 bpm
Mean BP, mean change from control ([3]; Recovery): −13.6 mmHg
Urine Flow, mean change from control ([3]; Recovery): 0.9 mL/h
Blood Flow, Average drug response SED ([3]; average of the two doses): -2.2 ± 0.5 mL/min
Conductance, Average drug response SED ([3]; average of the two doses): −0.3 ± 0.3 ml/min/mmHg
Diastolic LVP, Average drug response SED ([3]; average of the two doses): −1.2±0.5 mmHg
HCT, Average drug response SED ([3]; average of the two doses): 1.9 ± 0.5%
HR, Average drug response SED ([3]; average of the two doses): −10.0 ± 6.9 bpm
Mean BP, Average drug response SED ([3]; average of the two doses): −15.9±4.1 mmHg
